For eleven compounds, Kd results are on record in patent US12612410B2 (CHILDREN'S HOSPITAL MEDICAL CENTER, priority 2020, dated 2026).

Assay [1] concerns the target T1, FLT3 Autoinh. (Homo sapiens, UniProt P36888).
T1 construct: host or cells: E. coli BL21-derived host (T7 phage) or HEK-293
T1 sequence (P36888 564-993 limits assumed): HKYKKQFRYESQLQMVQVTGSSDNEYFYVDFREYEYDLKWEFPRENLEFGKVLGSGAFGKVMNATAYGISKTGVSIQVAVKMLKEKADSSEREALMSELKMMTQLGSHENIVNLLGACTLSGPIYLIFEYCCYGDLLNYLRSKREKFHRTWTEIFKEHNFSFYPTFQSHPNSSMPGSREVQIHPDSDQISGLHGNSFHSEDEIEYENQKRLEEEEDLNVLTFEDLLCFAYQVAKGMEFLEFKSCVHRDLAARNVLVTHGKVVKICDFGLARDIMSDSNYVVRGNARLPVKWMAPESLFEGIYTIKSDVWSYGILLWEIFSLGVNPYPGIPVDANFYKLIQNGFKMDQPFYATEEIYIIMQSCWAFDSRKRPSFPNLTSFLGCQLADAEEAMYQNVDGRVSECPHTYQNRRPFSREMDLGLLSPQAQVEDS
Kind of assay: DiscoverX KINOMEscan competition binding, FLT3 Autoinh. The text has this:
Kinase binding data were obtained for various exemplary compounds prepared according to Examples 1-24 using the DiscoverX KINOMVIEscan® active site-directed competition binding site-directed assay protocol described below. […] As a result, the data report thermodynamic interaction affinities (Kd values), rather than IC50 values that are dependent on ATP concentrations. The assay uses a DNA-tagged version of the protein kinase, and an immobilized ligand bound to a solid support. Compounds that directly or indirectly prevent kinase binding to the immobilized ligand reduce the amount of kinase captured on the solid support, which is detected using an ultra-sensitive qPCR method. Affinity constants reported from the assay have been reported to be independent of the immobilized ligand used that is coupled to the solid support (See supplemental information in Fabian, M. A. et. al., (2005) Nat. Biotechnol. 23, 329-336; Wodicka, L. M. et. al., (2010) Chem. Biol. 17, 1241-1249.)
Kinase-tagged T7 phage strains were prepared in an E. coli host derived from the BL21 strain. E. coli were grown to log-phase and infected with T7 phage and incubated with shaking at 32° C. until lysis. The lysates were centrifuged and filtered to remove cell debris. The remaining kinases were produced in HEK-293 cells and subsequently tagged with DNA for qPCR detection. Streptavidin-coated magnetic beads were treated with biotinylated small molecule ligands for 30 minutes at room temperature to generate affinity resins for kinase assays. The liganded beads were blocked with excess biotin and washed with blocking buffer (SeaBlock (Pierce), 1% BSA, 0.05% Tween 20, 1 mM DTT) to remove unbound ligand and to reduce non-specific binding. Binding reactions were assembled by combining kinases, liganded affinity beads, and test compounds in 1× binding buffer (20% SeaBlock, 0.17×PBS, 0.05% Tween 20, 6 mM DTT). Test compounds were prepared as 111× stocks in 100% DMSO. Kds were determined using an 11-point 3-fold compound dilution series with three DMSO control points. All compounds for Kd measurements are distributed by acoustic transfer (non-contact dispensing) in 100% DMSO. The compounds were then diluted directly into the assays such that the final concentration of DMSO was 0.9%. All reactions were performed in polypropylene 384-well plates. Each was a final volume of 0.02 mL. The assay plates were incubated at room temperature with shaking for 1 hour and the affinity beads were washed with wash buffer (1×PBS, 0.05% Tween 20). The beads were then re-suspended in elution buffer (1×PBS, 0.05% Tween 20, 0.5 μM nonbiotinylated affinity ligand) and incubated at room temperature with shaking for 30 minutes. The kinase concentration in the eluates was measured by qPCR.
Binding constants (Kds) were calculated with a standard dose-response curve using the Hill equation. The Hill Slope was set to −1. Curves were fitted using a non-linear least square fit with the Levenberg-Marquardt algorithm.

Assay [2] has as its target T2, FLT3 (Homo sapiens, UniProt P36888).
T2 sequence (P36888 27-993): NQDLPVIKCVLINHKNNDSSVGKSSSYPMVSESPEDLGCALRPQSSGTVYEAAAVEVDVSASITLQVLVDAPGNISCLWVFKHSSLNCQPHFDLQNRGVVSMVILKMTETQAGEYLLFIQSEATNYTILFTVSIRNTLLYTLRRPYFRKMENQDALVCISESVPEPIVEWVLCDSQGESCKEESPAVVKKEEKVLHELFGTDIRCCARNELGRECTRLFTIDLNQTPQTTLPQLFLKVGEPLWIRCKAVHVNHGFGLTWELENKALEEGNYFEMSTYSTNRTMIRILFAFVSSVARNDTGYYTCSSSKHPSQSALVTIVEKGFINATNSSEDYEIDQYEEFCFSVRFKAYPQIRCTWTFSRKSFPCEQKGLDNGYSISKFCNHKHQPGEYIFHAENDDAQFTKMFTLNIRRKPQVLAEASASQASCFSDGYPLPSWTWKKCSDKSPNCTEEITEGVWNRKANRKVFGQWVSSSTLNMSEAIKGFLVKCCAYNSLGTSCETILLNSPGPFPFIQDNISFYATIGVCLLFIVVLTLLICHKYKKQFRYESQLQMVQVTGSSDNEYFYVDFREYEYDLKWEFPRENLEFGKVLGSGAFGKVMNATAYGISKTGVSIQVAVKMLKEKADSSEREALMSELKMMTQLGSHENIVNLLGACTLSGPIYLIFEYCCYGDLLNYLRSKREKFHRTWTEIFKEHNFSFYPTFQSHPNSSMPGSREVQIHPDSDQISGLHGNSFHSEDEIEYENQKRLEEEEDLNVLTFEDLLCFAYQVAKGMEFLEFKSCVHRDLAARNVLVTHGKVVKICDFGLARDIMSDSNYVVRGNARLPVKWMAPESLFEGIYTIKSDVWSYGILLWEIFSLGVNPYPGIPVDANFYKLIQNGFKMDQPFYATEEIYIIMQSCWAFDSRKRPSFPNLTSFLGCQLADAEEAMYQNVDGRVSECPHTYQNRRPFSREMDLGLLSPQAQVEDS
In words: DiscoverX KINOMEscan competition binding, FLT3. Further details: purchased Reaction Biology (RBC), HotSpot kinase assay.

For `CC1(c2cn3c(-c4cccc(N[C@H]5CNC[C@@H]5F)n4)cnc3cn2)CC1` [Compound 1, N-((3S,4S)-4-fluoropyrrolidin-3-yl)-6-(6-(1-methylcyclopropyl)imidazo[1,2-a]pyrazin-3-yl)pyridin-2-amine], the Kd came to 1 nM in assay [1] and 0.049 nM in assay [2].
For `CC1(c2cn3c(-c4cccc(N[C@@H]5CCNC5)n4)cnc3cn2)CC1` [Compound 3, (R)-6-(6-(1-methylcyclopropyl)imidazo[1,2-a]pyrazin-3-yl)-N-(pyrrolidin-3-yl)pyridin-2-amine], in that order: 1.4 nM and 0.056 nM.
For `CC1(c2cn3c(-c4cccc(N[C@H]5CNCC56CC6)n4)cnc3cn2)CC1` [Compound 5, (R)-N-(6-(6-(1-methylcyclopropyl)imidazo[1,2-a]pyrazin-3-yl)pyridin-2-yl)-5-azaspiro[2.4]heptan-7-amine], in that order: 0.88 nM and 0.027 nM.
On the same counts, the results for `FC(F)(F)C1(c2cn3c(-c4cccc(N[C@@H]5CCNC5)n4)cnc3cn2)CC1` [Compound 10, (R)-N-(pyrrolidin-3-yl)-6-(6-(1-(trifluoromethyl)cyclopropyl)imidazo[1,2-a]pyrazin-3-yl)pyridin-2-amine] are 4.2 nM and 0.38 nM.
In the case of `FC(F)c1cn2c(-c3cccc(N[C@H]4CNC[C@@H]4F)n3)cnc2cn1` [Compound 16, 6-(6-(difluoromethyl)imidazo[1,2-a]pyrazin-3-yl)-N-((3S,4S)-4-fluoropyrrolidin-3-yl)pyridin-2-amine], the equilibrium dissociation constant (Kd) turned out to be 3 nM in assay [1] and 0.42 nM in assay [2].
On the same counts, the results for `FC(F)c1cn2c(-c3cccc(N[C@H]4CNCC[C@@H]4F)n3)cnc2cn1` [Compound 25, 6-(6-(difluoromethyl)imidazo[1,2-a]pyrazin-3-yl)-N-((3S,4S)-4-fluoropiperidin-3-yl)pyridin-2-amine] are 3.6 nM and 0.13 nM.
On the same counts, the results for `CC(C)(O)c1cn2c(-c3cccc(N[C@@H]4CCCNC4)n3)cnc2cn1` [Compound 30, (R)-2-(3-(6-(piperidin-3-ylamino)pyridin-2-yl)imidazo[1,2-a]pyrazin-6-yl)propan-2-ol] are 22 nM and 1.5 nM.
Turning to `CC(C)(O)c1cn2c(-c3cccc(N[C@H]4CNCC[C@@H]4F)n3)cnc2cn1` [Compound 31, 2-(3-(6-(((3S,4S)-4-fluoropiperidin-3-yl)amino)pyridin-2-yl)imidazo[1,2-a]pyrazin-6-yl)propan-2-ol], the figures for the Kd in assay [1] and in assay [2] were 10 nM and 0.55 nM, respectively.
Turning to `FC(F)(F)COc1cn2c(-c3cccc(N[C@@H]4CCNC4)n3)cnc2cn1` [Compound 38, (R)-N-(pyrrolidin-3-yl)-6-(6-(2,2,2-trifluoroethoxy)imidazo[1,2-a]pyrazin-3-yl)pyridin-2-amine], the dissociation constant (Kd) in assay [1] was determined as 7.6 nM; in assay [2], 0.61 nM.
Turning to `F[C@H]1CNC[C@@H]1Nc1cccc(-c2cnc3cnc(C4CC4)cn23)n1` [Compound 50, 6-(6-cyclopropylimidazo[1,2-a]pyrazin-3-yl)-N-((3S,4S)-4-fluoropyrrolidin-3-yl)pyridin-2-amine], the values for the dissociation constant (Kd) in assay [1] and in assay [2] were 1.9 nM and 0.062 nM, respectively.
For `Cn1cc(-c2cn3c(-c4cccc(N[C@H]5CNC[C@@H]5F)n4)cnc3cn2)cn1` [Compound 52, N-((3S,4S)-4-fluoropyrrolidin-3-yl)-6-(6-(1-methyl-1H-pyrazol-4-yl)imidazo[1,2-a]pyrazin-3-yl)pyridin-2-amine], in that order: 1.8 nM and 0.035 nM.
